Legend:
human B1R receptor = target: T1, human B1R receptor (Homo sapiens, UniProt P46663); experiment: Functional study on the bradykinin receptor 1 (B1R), FLIPR Ca2+ assay, hB1R cells; format: cell-based; conditions: agonist Lys-Des-Arg9-bradykinin 0.5 nM, % inhibition compared with the maximum achievable inhibition; for inhibition at 10 µM: CHO-K1, test substance 10 μM, read-out: B1R Antagonism, human [10 μM] % Inhibition; for B1R Antagonism, human [10 μM] % Inhibition: test substance 10 μM, hB1R CHO K1 cells
T1 construct: host or cells: CHO K1 cells (Chinese hamster ovary), stably transfected
T1 sequence (P46663 1-353): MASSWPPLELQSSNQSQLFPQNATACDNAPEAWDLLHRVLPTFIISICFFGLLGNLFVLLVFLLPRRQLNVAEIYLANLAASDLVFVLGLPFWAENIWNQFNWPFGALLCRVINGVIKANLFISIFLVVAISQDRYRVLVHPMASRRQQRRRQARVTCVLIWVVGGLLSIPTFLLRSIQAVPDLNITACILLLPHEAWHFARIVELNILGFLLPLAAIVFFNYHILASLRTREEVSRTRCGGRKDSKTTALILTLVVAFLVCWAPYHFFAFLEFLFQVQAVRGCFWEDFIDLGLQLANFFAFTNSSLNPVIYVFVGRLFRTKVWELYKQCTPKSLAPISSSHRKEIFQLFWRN
How it was run: (§1)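 FLIPR Ca2+ assay in recombinant CHO K1 cells (human or rat B1R), Fluo-4 dye; 10 μM compound, 10 min, then EC-level agonist per species (0.5 nM Lys-Des-Arg9-BK human / 100 nM Des-Arg9-BK rat). Output: % inhibition vs maximum.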

B1R receptor of the rat = target: T2, B1R receptor of the rat (Rattus norvegicus, UniProt P97583); experiment: Functional study on the bradykinin receptor 1 (B1R), FLIPR Ca2+ assay, rB1R cells; format: cell-based; conditions: agonist Des-Arg9-bradykinin 100 nM, % inhibition compared with the maximum achievable inhibition; for inhibition at 10 µM: CHO-K1, test substance 10 μM, read-out: B1R Antagonism, rat [10 μM] % Inhibition; for B1R Antagonism, rat [10 μM] % Inhibition: test substance 10 μM, rB1R CHO K1 cells
T2 construct: host or cells: CHO K1 cells (Chinese hamster ovary), stably transfected
T2 sequence (P97583 1-337): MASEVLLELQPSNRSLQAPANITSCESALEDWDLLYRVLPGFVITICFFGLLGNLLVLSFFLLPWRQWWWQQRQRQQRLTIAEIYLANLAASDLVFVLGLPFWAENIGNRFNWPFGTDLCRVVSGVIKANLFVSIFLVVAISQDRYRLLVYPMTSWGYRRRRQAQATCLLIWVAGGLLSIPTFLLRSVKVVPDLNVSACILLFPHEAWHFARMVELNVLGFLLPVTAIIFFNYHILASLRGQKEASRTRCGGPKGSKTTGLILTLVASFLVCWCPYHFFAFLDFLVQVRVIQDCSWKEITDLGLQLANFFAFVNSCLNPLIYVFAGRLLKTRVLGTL
How it was run: as §1

Compound | inhibition at 10 µM (human B1R receptor) | inhibition at 10 µM (B1R receptor of the rat) | B1R Antagonism, human [10 μM] % Inhibition (human B1R receptor) | B1R Antagonism, rat [10 μM] % Inhibition (B1R receptor of the rat)
COc1ccc(S(=O)(=O)N2CCCCC2COCC(=O)N2CCC(CCN3CCCCC3)CC2)cc1 (centres unmarked) [Example 52, 2-((1-(4-methoxyphenylsulfonyl)piperidin-2-yl)methoxy)-1-(4-(2-(piperidin-1-yl)-ethyl)piperidin-1-yl)ethanone] | 65% | 92.8% |  | 
Cc1cc(S(=O)(=O)N2CCCCC2COCC(=O)N2CCN(C3CCN(C)CC3)CC2)c(C)s1 (centres unmarked) [Example 172, 2-((1-(2,5-dimethylthiophen-3-ylsulfonyl)piperidin-2-yl)methoxy)-1-(4-(1-methylpiperidin-4-yl)piperazin-1-yl)ethanone] | 101% | 85.2% |  | 
COc1cc(C)c(S(=O)(=O)N2CCCCC2COCC(=O)NCc2ccc(N3CCN(C)CC3)cc2)c(C)c1 (centres unmarked) [Example 3, 2-[1-(4-methoxy-2,6-dimethyl-phenylsulfonyl)-piperidin-2-ylmethoxy]-N-[4-(4-methyl-piperazin-1-yl)-benzyl]-acetamide] |  |  | 103.84% | 108.97%
CCN1CCN(C(=O)COCC2CCCN2S(=O)(=O)c2c(C)cc(OC)cc2C)CC1 (centres unmarked) [Example 517, 1-(4-ethylpiperazin-1-yl)-2-((1-(4-methoxy-2,6-dimethylphenylsulfonyl)pyrrolidin-2-yl)methoxy)ethanone] | 98.8% | 102% |  | 
COc1cc(C)c(S(=O)(=O)N2CCCCC2COCC(=O)N(Cc2ccccc2)c2cccc(C)n2)c(C)c1 (centres unmarked) [Example 508, N-benzyl-2-((1-(4-methoxy-2,6-dimethylphenylsulfonyl)piperidin-2-yl)methoxy)-N-(6-methylpyridin-2-yl)acetamide] | 31.9% | 103% |  | 
O=C(COCC1CCCN1S(=O)(=O)c1c(Cl)cc(Cl)cc1Cl)N1CCN(c2ccncc2)CC1 (centres unmarked) [Example 335, 1-(4-(pyridin-4-yl)piperazin-1-yl)-2-((1-(2,4,6-trichlorophenylsulfonyl)pyrrolidin-2-yl)methoxy)ethanone] | 106% | 99.8% |  | 
CCN1CCN(C(=O)COCC2CCCN2S(=O)(=O)c2c(Cl)cc(Cl)cc2Cl)CC1 (centres unmarked) [Example 295, 1-(4-ethylpiperazin-1-yl)-2-((1-(2,4,6-trichlorophenylsulfonyl)pyrrolidin-2-yl)methoxy)ethanone] | 96.7% | 103% |  | 
O=C(COCC1CCCN1S(=O)(=O)c1ccc(Cl)c(Cl)c1)N1CCN(CC2CCCCC2)CC1 (centres unmarked) [Example 54, 1-(4-cyclohexylmethyl-piperazin-1-yl)-2-[1-(3,4-dichloro-phenylsulfonyl)-pyrrolidin-2-ylmethoxy]-ethanone] | 63.8% | 0% |  | 
COc1cc(C)c(S(=O)(=O)N2CCCC2COCC(=O)NCC2CCCN(Cc3ccccc3)C2)c(C)c1 (centres unmarked) [Example 300, N-((1-benzylpiperidin-3-yl)methyl)-2-((1-(4-methoxy-2,6-dimethylphenylsulfonyl)pyrrolidin-2-yl)methoxy)acetamide] | 106% | 103% |  | 
COc1cc(C)c(S(=O)(=O)N2CCCCC2COCC(=O)N2CCC(CCN3CCCCC3)CC2)c(C)c1 (centres unmarked) [Example 533, 2-((1-(4-methoxy-2,6-dimethylphenylsulfonyl)piperidin-2-yl)methoxy)-1-(4-(2-(piperidin-1-yl)ethyl)piperidin-1-yl)ethanone] | 106% | 108% |  | 
CN(C)CCN1CCN(C(=O)COCC2CCCN2S(=O)(=O)c2c(Cl)cccc2Cl)CC1 (centres unmarked) [Example 452, 2-((1-(2,6-dichlorophenylsulfonyl)pyrrolidin-2-yl)methoxy)-1-(4-(2-(dimethylamino)ethyl)piperazin-1-yl)ethanone] | 105% | 95.2% |  | 
COc1cc(C)c(S(=O)(=O)N2CCCCC2COCC(=O)N2CCCC2c2ccccn2)c(C)c1 (centres unmarked) [Example 247, 2-((1-(4-methoxy-2,6-dimethylphenylsulfonyl)piperidin-2-yl)methoxy)-1-(2-(pyridin-2-yl)pyrrolidin-1-yl)ethanone] | 70.8% | 96.8% |  | 
COc1cc(C)c(S(=O)(=O)N2CCCCC2COCC(=O)Nc2ccccc2N2CCN(C)CC2)c(C)c1 (centres unmarked) [Example 431, 2-((1-(4-methoxy-2,6-dimethylphenylsulfonyl)piperidin-2-yl)methoxy)-N-(2-(4-methylpiperazin-1-yl)phenyl)acetamide] | 28.4% | 96.2% |  | 
COc1cc(C)c(S(=O)(=O)N2CCCC2COCC(=O)N2CCC(N3CCOCC3)CC2)c(C)c1 (centres unmarked) [Example 519, 2-((1-(4-methoxy-2,6-dimethylphenylsulfonyl)pyrrolidin-2-yl)methoxy)-1-(4-morpholinopiperidin-1-yl)ethanone] | 81.9% | 103% |  | 
O=C(COCC1CCCCN1S(=O)(=O)c1c(Cl)cccc1Cl)N1CCN(CCO)CC1 (centres unmarked) [Example 552, 2-((1-(2,6-dichlorophenylsulfonyl)piperidin-2-yl)methoxy)-1-(4-(2-hydroxyethyl)piperazin-1-yl)ethanone] | 46.8% | 101% |  | 
COc1cc(C)c(S(=O)(=O)N2CCCCC2COCC(=O)N2CCC(N3CCN4CCCCC4C3)CC2)c(C)c1.Cl.Cl (centres unmarked) [Example 99] |  |  | 103.76% | 100.08%
COc1cc(C)c(S(=O)(=O)N2CCCCC2COCC(=O)Nc2cc(C)nc3ccccc23)c(C)c1 (centres unmarked) [Example 244, 2-((1-(4-methoxy-2,6-dimethylphenylsulfonyl)piperidin-2-yl)methoxy)-N-(2-methylquinolin-4-yl)acetamide] | 70.2% | 97.3% |  | 
CCc1ccc(CC2CCCCN2C(=O)COCC2CCCCN2S(=O)(=O)c2c(C)cc(C)cc2C)nc1 (centres unmarked) [Example 228, 1-(2-((5-ethylpyridin-2-yl)methyl)piperidin-1-yl)-2-((1-(mesitylsulfonyl)piperidin-2-yl)methoxy)ethanone] | 88.6% | 99.8% |  | 
O=C(COCC1CCCCN1S(=O)(=O)c1ccc(Cl)c(Cl)c1)N1CCC(CCN2CCCCC2)CC1 (centres unmarked) [Example 20, 2-((1-(3,4-dichlorophenylsulfonyl)piperidin-2-yl)methoxy)-1-(4-(2-(piperidin-1-yl)-ethyl)piperidin-1-yl)ethanone] | 94.9% | 86.4% |  | 
O=C(COCC1CCCN1S(=O)(=O)c1c(Cl)cccc1Cl)NCc1ccc(CN2CCCC2)cc1 (centres unmarked) [Example 322, 2-((1-(2,6-dichlorophenylsulfonyl)pyrrolidin-2-yl)methoxy)-N-(4-(pyrrolidin-1-ylmethyl)benzyl)acetamide] | 102% | 98.7% |  | 
Cc1ccccc1Oc1cccc(S(=O)(=O)N2CCCCC2COCC(=O)N2CCN(C3CCN(C)CC3)CC2)c1 (centres unmarked) [Example 131, 1-(4-(1-methylpiperidin-4-yl)piperazin-1-yl)-2-((1-(3-(o-tolyloxy)phenylsulfonyl)piperidin-2-yl)methoxy)ethanone] | 82.1% | 95.4% |  | 
O=C(COCC1CCCCN1S(=O)(=O)c1c(Cl)cccc1Cl)N1CCC(c2ccncc2)C1 (centres unmarked) [Example 282, 2-((1-(2,6-dichlorophenylsulfonyl)piperidin-2-yl)methoxy)-1-(3-(pyridin-4-yl)pyrrolidin-1-yl)ethanone] | 103% | 86% |  | 

Source: patent publication US8435978B2, “Substituted sulfonamide compounds” (Gruenenthal GmbH, priority 2006, dated 2013)
